From patent US5521155A, “Amides of teicoplanin compounds” (Gruppo Lepetit S.p.A, priority 1985, dated 1996)
Converted amounts (≈) assume the structure as drawn.

Legend:
[1] = Isoelectric point (pI) by isoelectrofocusing with bioautography detection; format: physicochemical; settings: IEF technique, polyacrylamide gel
Excerpt: The isoelectrofocusing (IEF) technique coupled with bioautography detection has been used for the determination of the pI of representative compounds of the invention using the following materials: AMPHOLINE carrier ampholytes (40% w/v) were purchased from LKB Produketer AB, Bromma, Sweden. Acrylamide, N,N'-methylenbisacrylamide (BIS), N,N,N',N'-tetramethylethylenediamine (TEMED) and ammonium persulfate were from Bio Rad Laboratorie, Richmond, Calif., USA. Glycerol and Antibiotic agar N. 1 (Grove and Randall medium N. 1) were from E. Merck Darmstadt FRG. GEL FIX polyester sheets were purchased from Serva Feinbiochemica Heidelberg. Phenolindo (2,6-dichlorophenol) came from BDH Chemicals Ltd. Poole, England.
IEF was made on gel slab using a LKB MULITPHOR 2117 cell and a Bio-Rad Power Supply Model 1420A. Slabs of 24.5×11.5 cm and 1 mm thickness were prepared on a sheet of GEL FIX. Polyacrylamide gels with a concentration of 8% T and with a cross-linkage of 4% C (30% T stock solution was prepared by dissolving 28.8 g of acrylamide and 1.2 g of bis-acrylamide in 100 ml distilled water), glycerol, 3.5% v/v, 2% AMPHOLINE, 0.05% ammonium persulphate as catalyst and 0.05% TEMED as accelerator. The carrier ampholite composition for 35 ml gelling solution was as follows:
The electrode solutions, as recommended by LKB for the respective pH range, were:
The gel was cooled to 4° C. with the aid of a LKB 2209 refrigerated constant temperature circulator. After prefocusing for 30 min. at 5 W, the samples (20 μl containing 0.2 to 2.5 μg of antibiotic) were loaded into the slot at the cathodic side. Electrofocusing was performed using 10 W constant power and was completed after 3-31/2 hours with a final potential of 1400 V.
The pH values were determined by dividing a portion of the gel into 1 cm sections, and eluting the individual pieces at room temperature with 1 ml of 10 mM KCl prior to pH readings.
The isoelectric point of each antibiotic was determined by interpolation on a curve obtained by plotting pH values versus the distance from the anode.
Polyacrylamide gel was placed on a 3 mm layer of agar medium N. 1 inoculated with 1% of Bacillus subtilis ATCC 6633 spore (0.5 OD at 600 nm). After 10 min the gel was removed and the plate was incubated overnight at 37° C. and examined for inhibition zones. The contrast between the area of lysis and that of bacterial growth was enhanced by use of Phenolindo(2,6-dichlorophenol) 1% w/v (oxidation-reduction indicator).

S. pyogenes L 49 = assay: In vivo test in mice experimentally infected with S. pyogenes L 49 (ED50); settings: mice infected with S. pyogenes L 49; for ED50, route of administration os.: oral
S. faecalis ATCC 7080 = assay: In vitro antibacterial activity, standard agar-dilution test (MIC); format: cell-based; settings: inoculum about 10^4 CFU/ml, 18-24 h at 37° C.
Method: (§1) The culture medium ISOSENSITEST BROTH (Oxoid) and the colture medium TODD-[…] BROTH (Difco) are used for growing staphylococci and streptococci, respectively. Broth cultures are diluted so that the final inoculum is about 10^4 colony forming units/ml (CFU/ml).

[2] = system: Proteus vulgaris X 19H ATCC 881; assay: as above; format: cell-based; settings: inoculum about 10^4 CFU/ml, 18-24 h at 37° C.
Method: as §1

S. pneumoniae UC 41 = assay: as above; format: cell-based; settings: inoculum about 10^4 CFU/ml, 18-24 h at 37° C.
Method: as §1

E. coli SKF 12140 = assay: as above; format: cell-based; settings: inoculum about 10^4 CFU/ml, 18-24 h at 37° C.
Method: as §1

S. pyogenes C 203 = assay: as above; format: cell-based; settings: inoculum about 10^4 CFU/ml, 18-24 h at 37° C.
Method: as §1

[3] = system: Pseudomonas aeruginosa ATCC 10145; assay: as above; format: cell-based; settings: inoculum about 10^4 CFU/ml, 18-24 h at 37° C.
Method: as §1

S. aureus Tour = assay: as above; format: cell-based; settings: inoculum about 10^4 CFU/ml, 18-24 h at 37° C.
Method: as §1

[4] = system: S. epidermidis ATCC 12228; assay: as above; format: cell-based; settings: inoculum about 10^4 CFU/ml, 18-24 h at 37° C.
Method: as §1

S. aureus ATCC 6538 = assay: as above; format: cell-based; settings: inoculum about 10^4 CFU/ml, 18-24 h at 37° C.
Method: as §1

Acid-base titration (pK) = format: physicochemical; settings: acid-base titration in METHYLCELLOSOLVE/H2O 4:1 (v/v), 0.01N KOH; for pK1 / pK2: salt form per Table IV
Method: The following table (Table IV) reports the acid-base titration data of some representative compounds of the invention. The assays were carried out in METHYLCELLOSOLVE/H2 O, 4:1(v/v). A sample is dissolved in METHYLCELLOSOLVE/H2 O, 4:1(v/v) (10 umole in about 20 ml) and then 0.01N HCl (2 ml) is added and the mixture is titrated with 0.01N KOH in the same solvent mixture.

Compound | Isoelectric point (pI) [1] | ED50, route of administration os. (S. pyogenes L 49) [mg/kg] | ED50, route of administration s.c (S. pyogenes L 49) [mg/kg] | MIC S. faecalis ATCC 7080 (S. faecalis ATCC 7080) [µg/mL] | MIC Proteus vulgaris X 19H ATCC 881 [2] [µg/mL] | MIC S. pneumoniae UC 41 (S. pneumoniae UC 41) [µg/mL] | MIC E. coli SKF 12140 (E. coli SKF 12140) [µg/mL] | MIC S. pyogenes C 203 (S. pyogenes C 203) [µg/mL] | MIC Pseudomonas aeruginosa ATCC 10145 [3] [µg/mL] | MIC S. aureus Tour (S. aureus Tour) [µg/mL] | MIC S. epidermidis ATCC 12228 [4] [µg/mL] | MIC S. aureus ATCC 6538 (S. aureus ATCC 6538) [µg/mL] | pK1 (Acid-base titration (pK)) | pK2 (Acid-base titration (pK)) | pK3 (Acid-base titration (pK); value not in brackets)
CC(=O)NC1C(OC2c3ccc(c(Cl)c3)Oc3cc4cc(c3O)Oc3ccc(cc3Cl)CC3NC(=O)C(N)c5ccc(O)c(c5)Oc5cc(O)cc(c5)C(NC3=O)C(=O)NC4C(=O)NC3C(=O)NC2C(=O)NC(C(=O)NCCCN(C)C)c2cc(O)cc(O)c2-c2cc3ccc2O)OC(CO)C(O)C1O (stereo not drawn) [Compound 13] | 8.9 | > 300 | 2.2 | 0.25 (≈ 0.168 µM) | > 128 | 0.25 (≈ 0.168 µM) | 64 (≈ 43.1 µM) | 0.12 (≈ 0.0807 µM) | > 128 | 0.12 (≈ 0.0807 µM) | 0.06 (≈ 0.0404 µM) | 0.12 (≈ 0.0807 µM) |  |  | 
CC(=O)NC1C(OC2c3ccc(c(Cl)c3)Oc3cc4cc(c3O)Oc3ccc(cc3Cl)CC3NC(=O)C(N)c5ccc(O)c(c5)Oc5cc(O)cc(c5)C(NC3=O)C(=O)NC4C(=O)NC3C(=O)NC2C(=O)NC(C(=O)NCCN2CCOCC2)c2cc(O)cc(O)c2-c2cc3ccc2O)OC(CO)C(O)C1O (stereo not drawn) [Compound 14] | 8.0 |  |  | 0.5 (≈ 0.33 µM) | > 128 | 1 (≈ 0.66 µM) | > 128 | 0.5 (≈ 0.33 µM) | > 128 | 0.5 (≈ 0.33 µM) | 0.12 (≈ 0.0792 µM) |  | 5.3 | 6.8 | 
NC1C(=O)NC2Cc3ccc(c(Cl)c3)Oc3cc4cc(c3O)Oc3ccc(cc3Cl)C(O)C3NC(=O)C(NC(=O)C4NC(=O)C(NC2=O)c2cc(O)cc(c2)Oc2cc1ccc2O)c1ccc(O)c(c1)-c1c(O)cc(O)cc1C(C(=O)NCCN1CCCC1)NC3=O (stereo not drawn) [Compound 22] | 8.8 | > 300 | 1.6 | 0.12 (≈ 0.0927 µM) | 64 (≈ 49.4 µM) | 0.12 (≈ 0.0927 µM) | 8 (≈ 6.18 µM) | 0.06 (≈ 0.0463 µM) | 64 (≈ 49.4 µM) | 0.12 (≈ 0.0927 µM) | 0.016 (≈ 0.0124 µM) |  | 6.4 | 7.8 | 
NC1C(=O)NC2Cc3ccc(c(Cl)c3)Oc3cc4cc(c3O)Oc3ccc(cc3Cl)C(O)C3NC(=O)C(NC(=O)C4NC(=O)C(NC2=O)c2cc(O)cc(c2)Oc2cc1ccc2O)c1ccc(O)c(c1)-c1c(O)cc(O)cc1C(C(=O)NCCCCCC(=O)NC1C(O)OC(CO)C(O)C1O)NC3=O (stereo not drawn) [Compound 31] | 7.9 | > 300 | 2.9 | 0.25 (≈ 0.17 µM) | > 128 | 0.25 (≈ 0.17 µM) | 64 (≈ 43.4 µM) | 0.12 (≈ 0.0815 µM) | > 128 | 0.5 (≈ 0.339 µM) | 0.063 (≈ 0.0428 µM) |  | 6.45 |  | 
COC(=O)C(CCCCN)NC(=O)C1NC(=O)C2NC(=O)C(NC(=O)C3NC(=O)C4NC(=O)C(Cc5ccc(c(Cl)c5)Oc5cc3cc(c5O)Oc3ccc(cc3Cl)C2O)NC(=O)C(N)c2ccc(O)c(c2)Oc2cc(O)cc4c2)c2ccc(O)c(c2)-c2c(O)cc(O)cc21.Cl.Cl (stereo not drawn) [Compound 73] |  | > 300 | 0.81 | 0.12 | 32 | 0.06 | 4 | 0.12 | 32 | 0.06 | 0.06 |  |  | 6.5 | 8.9
Cl.Cl.NC1C(=O)NC2Cc3ccc(c(Cl)c3)Oc3cc4cc(c3O)Oc3ccc(cc3Cl)C(O)C3NC(=O)C(NC(=O)C4NC(=O)C(NC2=O)c2cc(O)cc(c2)Oc2cc1ccc2O)c1ccc(O)c(c1)-c1c(O)cc(O)cc1C(C(=O)NCCCN1CCOCC1)NC3=O (stereo not drawn) [Compound 78] | 8.1 | > 300 | 1.4 | 0.12 | 64 | 0.12 | 8 | 0.06 | 32 | 0.06 | 0.06 |  |  |  | 
Cl.Cl.NC1C(=O)NC2Cc3ccc(c(Cl)c3)Oc3cc4cc(c3O)Oc3ccc(cc3Cl)C(O)C3NC(=O)C(NC(=O)C4NC(=O)C(NC2=O)c2cc(O)cc(c2)Oc2cc1ccc2O)c1ccc(O)c(c1)-c1c(O)cc(O)cc1C(C(=O)NC1CN2CCC1CC2)NC3=O (stereo not drawn) [Compound 83] | 8.9 | > 300 | 0.46 | 0.12 | 64 | 0.06 | 8 | 0.06 | 32 | 0.12 | 0.06 |  |  |  | 
NCCCCC(NC(=O)C1NC(=O)C2NC(=O)C(NC(=O)C3NC(=O)C4NC(=O)C(Cc5ccc(c(Cl)c5)Oc5cc3cc(c5O)Oc3ccc(cc3Cl)C2O)NC(=O)C(N)c2ccc(O)c(c2)Oc2cc(O)cc4c2)c2ccc(O)c(c2)-c2c(O)cc(O)cc21)C(=O)O (stereo not drawn) [Compound 84] | 7.8 | > 300 | 1.65 | 0.12 (≈ 0.0904 µM) | > 128 | 0.12 (≈ 0.0904 µM) | 64 (≈ 48.2 µM) | 0.12 (≈ 0.0904 µM) | > 128 | 0.12 (≈ 0.0904 µM) | 0.06 (≈ 0.0452 µM) |  |  |  | 
CN(C)CCCCCCCNC(=O)C1NC(=O)C2NC(=O)C(NC(=O)C3NC(=O)C4NC(=O)C(Cc5ccc(c(Cl)c5)Oc5cc3cc(c5O)Oc3ccc(cc3Cl)C2O)NC(=O)C(N)c2ccc(O)c(c2)Oc2cc(O)cc4c2)c2ccc(O)c(c2)-c2c(O)cc(O)cc21 (stereo not drawn) [Compound 101] | 9.1 |  |  | 0.12 (≈ 0.0896 µM) | 128 (≈ 95.6 µM) | 0.12 (≈ 0.0896 µM) | 16 (≈ 11.9 µM) | 0.06 (≈ 0.0448 µM) | 128 (≈ 95.6 µM) | 0.06 (≈ 0.0448 µM) | 0.06 (≈ 0.0448 µM) |  |  |  | 
